Where two headings read alike, the source gives them in different places.
Legend:
[1] = target: RET-V804M (Homo sapiens, UniProt P07949, V804M); assay: RET inhibition experiment (HTRF KinEASE-TK kit), mutant RET-V804M; type: biochemical; conditions: for IC50: read-out: The IC50 (nM) for inhibiting V804M
How it was run: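 Enzyme was pre-incubated with compound at room temperature for 30 min, then substrate and ATP were added for a 40 min reaction. HTRF signal was read after 45 min with TK antibody-cryptate and streptavidin-XL665. IC50 came from a four-parameter fit of percent inhibition against DMSO and no-enzyme controls.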

[2] = target: VEGFR2 (Homo sapiens, UniProt P35968); assay: VEGFR2 inhibition experiment (HTRF KinEASE-TK kit); type: biochemical; conditions: read-out: Inhibition rate on VEGFR2; for inhibition at 0.03 µM: 30 nM
Chain of VEGFR2 (P35968 20-1356, species assumed): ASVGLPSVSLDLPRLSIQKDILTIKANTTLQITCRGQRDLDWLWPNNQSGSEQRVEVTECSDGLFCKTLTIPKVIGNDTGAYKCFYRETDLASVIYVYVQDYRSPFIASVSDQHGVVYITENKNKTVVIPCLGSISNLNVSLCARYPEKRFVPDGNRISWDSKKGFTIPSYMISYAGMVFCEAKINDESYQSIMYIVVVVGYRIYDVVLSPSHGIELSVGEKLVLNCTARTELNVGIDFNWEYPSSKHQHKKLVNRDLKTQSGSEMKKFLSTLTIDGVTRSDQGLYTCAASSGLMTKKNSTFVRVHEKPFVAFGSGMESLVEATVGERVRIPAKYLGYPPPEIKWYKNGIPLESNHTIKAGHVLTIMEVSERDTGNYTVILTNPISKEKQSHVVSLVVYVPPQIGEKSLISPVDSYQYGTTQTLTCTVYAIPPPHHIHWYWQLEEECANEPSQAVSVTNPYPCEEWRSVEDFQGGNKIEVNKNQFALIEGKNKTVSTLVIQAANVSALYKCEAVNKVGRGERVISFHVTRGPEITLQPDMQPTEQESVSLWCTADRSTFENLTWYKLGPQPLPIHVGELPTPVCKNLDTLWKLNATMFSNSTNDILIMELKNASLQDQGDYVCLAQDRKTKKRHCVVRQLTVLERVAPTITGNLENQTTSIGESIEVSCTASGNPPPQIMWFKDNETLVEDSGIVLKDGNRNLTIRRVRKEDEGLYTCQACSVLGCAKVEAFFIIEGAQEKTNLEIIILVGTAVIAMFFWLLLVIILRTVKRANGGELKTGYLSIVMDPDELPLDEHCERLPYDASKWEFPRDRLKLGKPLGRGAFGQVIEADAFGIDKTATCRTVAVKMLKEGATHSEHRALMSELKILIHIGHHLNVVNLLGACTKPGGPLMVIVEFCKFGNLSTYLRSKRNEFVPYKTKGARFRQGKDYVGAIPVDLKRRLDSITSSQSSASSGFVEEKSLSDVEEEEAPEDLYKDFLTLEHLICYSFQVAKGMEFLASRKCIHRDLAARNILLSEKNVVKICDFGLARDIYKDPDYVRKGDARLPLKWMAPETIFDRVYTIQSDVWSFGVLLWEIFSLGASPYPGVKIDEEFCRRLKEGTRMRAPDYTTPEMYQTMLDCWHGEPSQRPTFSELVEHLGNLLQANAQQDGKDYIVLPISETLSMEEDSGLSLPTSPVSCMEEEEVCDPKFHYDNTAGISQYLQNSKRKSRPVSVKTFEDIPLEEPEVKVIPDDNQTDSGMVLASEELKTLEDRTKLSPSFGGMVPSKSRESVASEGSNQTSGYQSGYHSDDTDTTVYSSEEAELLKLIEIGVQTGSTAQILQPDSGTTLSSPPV
How it was run: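 HTRF KinEASE-TK format: enzyme and compound were preincubated 30 min at room temperature, then substrate and ATP added for 40 min, followed by cryptate antibody/streptavidin-XL665 detection for 45 min. Inhibition was normalised to DMSO and no-enzyme controls; IC50 from a four-parameter fit.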

[3] = 10 nM (Table 2), read-out: Inhibition rate on RET-V804M

Chain of RET-V804M (P07949 29-1114 V804M): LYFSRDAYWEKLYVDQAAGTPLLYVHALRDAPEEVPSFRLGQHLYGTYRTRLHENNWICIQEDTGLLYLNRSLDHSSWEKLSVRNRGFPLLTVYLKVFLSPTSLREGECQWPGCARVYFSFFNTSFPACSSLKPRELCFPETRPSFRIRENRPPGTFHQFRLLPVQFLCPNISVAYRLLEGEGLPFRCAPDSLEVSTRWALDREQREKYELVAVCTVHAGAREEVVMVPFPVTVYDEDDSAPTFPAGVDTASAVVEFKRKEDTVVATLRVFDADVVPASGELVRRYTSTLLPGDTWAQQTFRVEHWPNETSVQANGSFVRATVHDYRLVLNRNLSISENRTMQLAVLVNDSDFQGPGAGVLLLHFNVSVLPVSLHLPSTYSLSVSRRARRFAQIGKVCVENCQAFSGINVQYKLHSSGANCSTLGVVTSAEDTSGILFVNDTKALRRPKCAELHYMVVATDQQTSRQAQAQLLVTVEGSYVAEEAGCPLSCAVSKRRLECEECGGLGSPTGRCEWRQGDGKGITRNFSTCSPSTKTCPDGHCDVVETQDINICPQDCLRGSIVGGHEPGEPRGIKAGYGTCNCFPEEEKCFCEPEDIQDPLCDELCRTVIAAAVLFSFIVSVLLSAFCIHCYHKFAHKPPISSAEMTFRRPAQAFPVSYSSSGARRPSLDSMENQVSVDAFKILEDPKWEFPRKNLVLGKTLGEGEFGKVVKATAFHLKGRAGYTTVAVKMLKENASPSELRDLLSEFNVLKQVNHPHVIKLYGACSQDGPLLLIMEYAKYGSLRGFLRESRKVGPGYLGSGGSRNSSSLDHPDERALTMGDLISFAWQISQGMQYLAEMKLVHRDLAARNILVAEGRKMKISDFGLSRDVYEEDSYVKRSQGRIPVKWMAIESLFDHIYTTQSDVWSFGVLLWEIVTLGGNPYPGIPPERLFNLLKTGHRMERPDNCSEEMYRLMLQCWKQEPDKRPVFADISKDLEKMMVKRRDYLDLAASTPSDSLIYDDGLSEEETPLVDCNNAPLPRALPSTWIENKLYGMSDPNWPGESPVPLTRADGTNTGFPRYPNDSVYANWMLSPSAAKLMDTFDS

Compound | inhibition at 0.1 µM ([2]; 100 nM) [%] | inhibition at 0.01 µM [1, 3] [%] | further results
Cc1cc(Nc2cc(C)[nH]n2)nc(-c2ccc(N3CC4CC(C3)N4Cc3ccc(F)cn3)nc2)n1 [Compound 70, 2-(6-(6-((5-fluoropyridin-2-yl)methyl)-3,6-diazabicyclo[3.1.1]heptan-3-yl)pyridin-3-yl)-6-methyl-N-(5-methyl-1H-pyrazol-3-yl)pyrimidin-4-amine] | 14 |  | IC50 [1]: 41.4 ± 3.73 nM
Cc1ccc(CN2C3CC2CN(c2ccc(-c4nc(C)cc(Nc5cc(C)[nH]n5)n4)cn2)C3)cc1 [Compound 80, 6-methyl-N-(5-methyl-1H-pyrazol-3-yl)-2-(6-(6-(4-methylbenzyl)-3,6-diazabicyclo[3.1.1]heptan-3-yl)pyridin-3-yl)pyrimidin-4-amine] |  |  | inhibition at 0.01 µM ([1]; read-out: Inhibition rate on RET-V804M): 51%; inhibition at 0.1 µM [2]: -10%
Cc1cc(Nc2cc(C)[nH]n2)nc(-c2ccc(N3CC4CC(C3)N4Cc3ccc(Cl)cc3)nc2)n1 [Compound 82, 2-(6-(6-(4-chlorobenzyl)-3,6-diazabicyclo[3.1.1]heptan-3-yl)pyridin-3-yl)-6-methyl-N-(5-methyl-1H-pyrazol-3-yl)pyrimidin-4-amine] | 15 | 43 | 
Cc1cc(Nc2cc(C)[nH]n2)nc(-c2ccc(N3CC4CC(C3)N4Cc3ccc(F)cc3)nc2)n1 [Compound 83, 2-(6-(6-(4-fluorobenzyl)-3,6-diazabicyclo[3.1.1]heptan-3-yl)pyridin-3-yl)-6-methyl-N-(5-methyl-1H-pyrazol-3-yl)pyrimidin-4-amine] | 18 | 56 | 
Cc1cc(Nc2cc(C)[nH]n2)nc(-c2ccc(N3CC4CC(C3)N4Cc3ccc(-n4cccn4)cc3)nc2)n1 [Compound 86, 2-(6-(6-(4-(1H-pyrazol-1-yl)benzyl)-3,6-diazabicyclo[3.1.1]heptan-3-yl)pyridin-3-yl)-6-methyl-N-(5-methyl-1H-pyrazol-3-yl)pyrimidin-4-amine] | 52 | 64 | 
Cc1cnn(-c2ccc(CN3C4CC3CN(c3ccc(-c5nc(C)cc(Nc6cc(C)[nH]n6)n5)cn3)C4)cc2)c1 [Compound 88, 6-methyl-2-(6-(6-(4-(4-methyl-1H-pyrazol-1-yl)benzyl)-3,6-diazabicyclo[3.1.1]heptan-3-yl)pyridin-3-yl)-N-(5-methyl-1H-pyrazol-3-yl)pyrimidin-4-amine] | 32 | 62 | 
Cc1cc(Nc2cc(C)[nH]n2)nc(-c2ccc(N3CC4CC(C3)N4Cc3ccc(-n4ccc(F)n4)cc3)nc2)n1 [Compound 89, 2-(6-(6-(4-(3-fluoro-1H-pyrazol-1-yl)benzyl)-3,6-diazabicyclo[3.1.1]heptan-3-yl)pyridin-3-yl)-6-methyl-N-(5-methyl-1H-pyrazol-3-yl)pyrimidin-4-amine] | 16 | 70 | 
Cc1cc(Nc2cc(C)[nH]n2)nc(-c2ccc(N3CC4CC(C3)N4Cc3ccc(-n4cc(F)cn4)cc3)nc2)n1 [Compound 91, 2-(6-(6-(4-(4-fluoro-1H-pyrazol-1-yl)benzyl)-3,6-diazabicyclo[3.1.1]heptan-3-yl)pyridin-3-yl)-6-methyl-N-(5-methyl-1H-pyrazol-3-yl)pyrimidin-4-amine] | 26 | 70 | 
COc1ccc(F)c(CN2C3CC2CN(c2ccc(-c4nc(C)cc(Nc5cc(C)[nH]n5)n4)cn2)C3)c1 [Compound 96, 2-(6-(6-(2-fluoro-5-methoxybenzyl)-3,6-diazabicyclo[3.1.1]heptan-3-yl)pyridin-3-yl)-6-methyl-N-(5-methyl-1H-pyrazol-3-yl)pyrimidin-4-amine] | 4 |  | inhibition at 0.1 µM ([1]; 100 nM (Table 2), read-out: Inhibition rate on RET-V804M): 84%
Cc1ccc(OC2CCN(c3ccc(-c4nc(C)cc(Nc5cc(C)[nH]n5)n4)cn3)CC2)cn1 [Compound 119, 6-methyl-N-(5-methyl-1H-pyrazol-3-yl)-2-(6-(4-((6-methylpyridin-3-yl)oxy)piperidin-1-yl)pyridin-3-yl)pyrimidin-4-amine] | -7 |  | IC50 [1]: 14.2 ± 1.27 nM
Cc1cc(Nc2cc(C)[nH]n2)nc(-c2ccc(N3CC4CC(C3)N4Cc3ccc(-n4cc(C)c(C)n4)nc3)nc2)n1 [Compound 121, 2-(6-(6-((6-(3,4-dimethyl-1H-pyrazol-1-yl)pyridin-3-yl)methyl)-3,6-diazabicyclo[3.1.1]heptan-3-yl)pyridin-3-yl)-6-methyl-N-(5-methyl-1H-pyrazol-3-yl)pyrimidin-4-amine] | 37 |  | IC50 [1]: 6.22 ± 1.39 nM
Cc1cc(Nc2cc(C)[nH]n2)nc(-c2ccc(N3CC4CC(C3)N4Cc3ccc(-c4ccc[nH]4)nc3)nc2)n1 [Compound 123, 2-(6-(6-((6-(1H-pyrrol-2-yl)pyridin-3-yl)methyl)-3,6-diazabicyclo[3.1.1]heptan-3-yl)pyridin-3-yl)-6-methyl-N-(5-methyl-1H-pyrazol-3-yl)pyrimidin-4-amine] |  |  | IC50 [1]: 1.88 ± 0.11 nM; inhibition at 0.03 µM [2]: 56%
Cc1cc(Nc2cc(C)[nH]n2)nc(-c2ccc(N3CC4CC(C3)N4Cc3ccc(-n4cc(F)c(C5CC5)n4)nc3)nc2)n1 [Compound 124, 2-(6-(6-((6-(3-cyclopropyl-4-fluoro-1H-pyrazol-1-yl)pyridin-3-yl)methyl)-3,6-diazabicyclo[3.1.1]heptan-3-yl)pyridin-3-yl)-6-methyl-N-(5-methyl-1H-pyrazol-3-yl)pyrimidin-4-amine] |  |  | IC50 [1]: 10.7 ± 0.98 nM; inhibition at 0.03 µM [2]: 41%
Cc1cc(Nc2cc(C)[nH]n2)nc(-c2ccc(N3CC4CC(C3)N4Cc3ccc(-c4cccn4C)nc3)nc2)n1 [Compound 128, 6-methyl-N-(5-methyl-1H-pyrazol-3-yl)-2-(6-(6-((6-(1-methyl-1H-pyrrol-2-yl)pyridin-3-yl)methyl)-3,6-diazabicyclo[3.1.1]heptan-3-yl)pyridin-3-yl)pyrimidin-4-amine] | 20 | 48 | 
Cc1cc(Nc2cc(C)[nH]n2)nc(-c2ccc(N3CC4CC(C3)N4Cc3ccc(-c4cscn4)nc3)nc2)n1 [Compound 129, 6-methyl-N-(5-methyl-1H-pyrazol-3-yl)-2-(6-(6-((6-(thiazol-4-yl)pyridin-3-yl)methyl)-3,6-diazabicyclo[3.1.1]heptan-3-yl)pyridin-3-yl)pyrimidin-4-amine] |  | 84 | inhibition at 0.03 µM [2]: 52%
Cc1cc(Nc2cc(C)[nH]n2)nc(-c2ccc(N3CC4CC(C3)N4Cc3ccc(-c4ccc(F)[nH]4)nc3)nc2)n1 [Compound 131, 2-(6-(6-((6-(5-fluoro-1H-pyrrol-2-yl)pyridin-3-yl)methyl)-3,6-diazabicyclo[3.1.1]heptan-3-yl)pyridin-3-yl)-6-methyl-N-(5-methyl-1H-pyrazol-3-yl)pyrimidin-4-amine] |  | 72 | inhibition at 0.03 µM [2]: 50%
Cc1cc(Nc2cc(C)[nH]n2)nc(-c2ccc(N3CC4CC(C3)N4Cc3ccc(-c4ccn[nH]4)nc3)nc2)n1 [Compound 132, 2-(6-(6-((6-(1H-pyrazol-5-yl)pyridin-3-yl)methyl)-3,6-diazabicyclo[3.1.1]heptan-3-yl)pyridin-3-yl)-6-methyl-N-(5-methyl-1H-pyrazol-3-yl)pyrimidin-4-amine] |  | 84 | inhibition at 0.03 µM [2]: 31%

Source: patent publication US20220144847A1, “HETEROCYCLIC COMPOUND, PHARMACEUTICAL COMPOSITION COMPRISING SAME, PREPARATION METHOD THEREFOR, AND USE THEREOF” (Sichuan Kelun-Biotech Biopharmaceutical Co., Ltd., priority 2019, published 2022)
